Assay: Human HepG2 cell viability assay in 384 well format
Type: toxicity, cell-based
Parameters: dose 125 nL, time 70.5 hour; cytotoxicity at 70.5 h: concentration not given beside the values
Details: HepG2 cells, read-out: Inhibition

## N#Cc1ccc(CCC(=O)N2CCCC(n3cncn3)C2)cc1 (stereo not drawn)
  cytotoxicity at 70.5 h: -8.59%

## Cc1ccc2c(c1)C1(CCNCC1)CN2C(=O)C(C)C
  cytotoxicity at 70.5 h: 18.3%

## CCN1CC(=O)c2sc(NC(C)C)nc2C1
  cytotoxicity at 70.5 h: 5.33%

## CC(c1cccc(-c2ncccc2C#N)c1)N(C)C (stereo not drawn)
  cytotoxicity at 70.5 h: -15.1%

## CC(C)(C)c1n[nH]cc1CNCC1CCN(CC(F)(F)F)C1 (stereo not drawn)
  cytotoxicity at 70.5 h: -6.93%

## CC(=O)c1cc(CC(=O)N2CCN(S(=O)(=O)c3ccccc3)CC2)cs1
  cytotoxicity at 70.5 h: -1.54%

## Cc1ccc(CNCc2cccc3cccnc23)c(OC2CCOC2)c1 (stereo not drawn)
  cytotoxicity at 70.5 h: 12.2%

## Cc1ccc(C(=O)N2CCN(S(C)(=O)=O)CC2)cc1N1CCNC1=O
  cytotoxicity at 70.5 h: -1.5%

## CC1=NN(c2ccc(C(=O)OCCNC(=O)c3ccncc3)cc2)CC1
  cytotoxicity at 70.5 h: -2.48%

## Cc1cccc(C)c1Nc1noc2c1CN(C(=O)c1ccn(C)n1)CC2
  cytotoxicity at 70.5 h: 46.4%

## O=C(CCc1ccsc1)N1CCC(n2cc(CO)nn2)CC1
  cytotoxicity at 70.5 h: -13.1%

## COCCN(Cc1ccncc1)C(=O)C1COc2ccccc2C1 (stereo not drawn)
  cytotoxicity at 70.5 h: -6.32%

## O=C1CCC2(CCN(CC[C@H](O)c3ccccc3)CC2)CN1CCO
  cytotoxicity at 70.5 h: 1.6%

## Cc1nc(CCNC(=O)N2CCC(Cc3cnn(C)c3)C2)cs1 (stereo not drawn)
  cytotoxicity at 70.5 h: -29.6%

## COc1ccc2c(ccn2CCC(=O)Nc2n[nH]c(CC(C)C)n2)c1
  cytotoxicity at 70.5 h: 24%

## CCC(=O)Nc1ccc2c(ccn2CCOC)c1
  cytotoxicity at 70.5 h: -8.06%

## O=C(CCc1ccsc1)N1CCC(N2CCNC2=O)CC1
  cytotoxicity at 70.5 h: 3.98%

## COCC(O)CN(C)C(=O)NC1CCN(Cc2ccccn2)CC1 (stereo not drawn)
  cytotoxicity at 70.5 h: -17.1%

## COc1ccc(C(=O)NCCC(N)=O)c(I)c1
  cytotoxicity at 70.5 h: 24.4%

## CC(C)N(CC(N)=O)Cc1c(Cl)ccc2cccnc12
  cytotoxicity at 70.5 h: -8.03%

## Cc1cc(C(=O)NCC(O)c2ccc(Cl)s2)c(C)o1 (stereo not drawn)
  cytotoxicity at 70.5 h: -10.3%

## C=C(C)COc1ccccc1NC(=O)N1CCCCC1CO (stereo not drawn)
  cytotoxicity at 70.5 h: 4.81%

## O=C(Cc1ccsc1)N1C[C@@H]2OCCN(c3cnccn3)[C@@H]2C1
  cytotoxicity at 70.5 h: 12.1%

## CC(C)(C)c1n[nH]cc1CNCC1CCN(C2CC2)C1 (stereo not drawn)
  cytotoxicity at 70.5 h: -6.24%

## Cc1cnn(CC2CN(Cc3nnc(-c4ccccc4)o3)CCO2)c1 (stereo not drawn)
  cytotoxicity at 70.5 h: -8.48%

## Cc1cc(C2CCCN(S(=O)(=O)c3cn(C)cn3)C2)ccn1 (stereo not drawn)
  cytotoxicity at 70.5 h: -5.97%

## CCCC(=O)Nc1sc(C(=O)OCC)c(C)c1C#N
  cytotoxicity at 70.5 h: -2.39%

## CCCn1cc(CN2CCCC2c2nccc(CN(C)C)n2)cn1 (stereo not drawn)
  cytotoxicity at 70.5 h: 21.3%

## COc1cccc2cc(CNC(=O)N3CCCC(O)C3)oc12 (stereo not drawn)
  cytotoxicity at 70.5 h: 46.8%

## O=C(Nc1ccc(F)c(F)c1)N1CCC2(CCC(=O)N(C3CC3)C2)CC1
  cytotoxicity at 70.5 h: -5.15%

## O=C1N(c2ccc(Br)cc2)Cc2nc(=O)[nH]n21
  cytotoxicity at 70.5 h: -16.4%

## CN(C)c1ncncc1NC(=O)Cc1c[nH]c2ccc(F)cc12
  cytotoxicity at 70.5 h: -2.95%

## CN(C(=O)COc1ccc(F)cc1)[C@@H]1CS(=O)(=O)C[C@H]1O
  cytotoxicity at 70.5 h: -0.138%

## COc1ncc(-c2cc(NCCN(C)C)nc3[nH]ccc23)c(OC)n1
  cytotoxicity at 70.5 h: 15.3%

## Cc1noc(C)c1CN1CC[C@H]2[C@H]1CCN2CC1CCOCC1
  cytotoxicity at 70.5 h: -5.25%

## Cc1nccn1-c1ccc(CNS(=O)(=O)N2CCCC(C)C2)cn1 (stereo not drawn)
  cytotoxicity at 70.5 h: -4.59%

## COc1cc(CNCC(O)c2ccc(C)cc2)cc2c1OCCO2 (stereo not drawn)
  cytotoxicity at 70.5 h: 4.82%

## CCN(CC)CCCNCC1CCOC(C)(C)C1 (stereo not drawn)
  cytotoxicity at 70.5 h: -3.64%

## Cn1cc(C2CCCN2C(=O)Cn2ccc3ccccc32)cn1 (stereo not drawn)
  cytotoxicity at 70.5 h: -0.47%

## O=C(Cn1cc(-c2ccccc2)ncc1=O)Nc1ncc[nH]1
  cytotoxicity at 70.5 h: -12.3%

## COc1cc(N2CCC3(CCCN(Cc4ccccn4)C3)C2)ncn1 (stereo not drawn)
  cytotoxicity at 70.5 h: -5.46%

## O=C1N(c2ccc(F)cc2)Cc2nc(=O)n(Cc3cccc(Cl)c3)n21
  cytotoxicity at 70.5 h: -0.858%

## CSc1ccc(CN(CCO)C(=O)CCOc2ccccc2)cc1
  cytotoxicity at 70.5 h: -7.56%

## CCN(CC)S(=O)(=O)c1ccc(CNc2cc(C)nc(C)n2)cc1
  cytotoxicity at 70.5 h: -12.1%

## Cc1cccc(N2CC3(CCN(c4nncs4)C3)CC2=O)c1 (stereo not drawn)
  cytotoxicity at 70.5 h: -4.91%

## Cc1cccc(CNC(CN2CCN(C)CC2)c2ccccc2)c1 (stereo not drawn)
  cytotoxicity at 70.5 h: 10.9%

## CCN(CC1CCCO1)C(=O)Nc1cc(C(=O)OC)ccc1F (stereo not drawn)
  cytotoxicity at 70.5 h: -22.1%

## Cc1nnc(SCC(=O)c2cc3c(cc2Cl)NC(=O)C3)o1
  cytotoxicity at 70.5 h: -31.5%

## Cc1nnc(CN2C[C@H]3CC[C@@H]2CN(C2Cc4ccccc4C2)C3)o1
  cytotoxicity at 70.5 h: 4.16%

## Clc1ccc(OCCNC2(c3ccc(Br)cc3)CCOCC2)cc1
  cytotoxicity at 70.5 h: 9.53%

## Fc1ccc(CN2C[C@@H](OCc3ccccn3)[C@H]3COC[C@H]32)cc1
  cytotoxicity at 70.5 h: -1.1%

## O=c1nc(SCc2ccc(Cl)cc2)c2c(n1CCO)CCC2
  cytotoxicity at 70.5 h: 20.9%

## C[C@@H]1CN(C(=O)c2cnc(C3CC3)nc2)CC[C@@]1(O)C1CCOCC1
  cytotoxicity at 70.5 h: -8.12%

## CN1Cc2cnn(CC3CCCC3)c2C(COCC2CC2)C1 (stereo not drawn)
  cytotoxicity at 70.5 h: -1.16%

## CCS(=O)(=O)N1CCCn2nnc(Cn3cccc3)c2C1
  cytotoxicity at 70.5 h: -5.99%

## Cc1nc(CN2CCCC2Cn2ccnc2C(C)C)nc2ccccc12 (stereo not drawn)
  cytotoxicity at 70.5 h: 19.9%

## Fc1cccc(N2CCCC3(C2)CN(c2cnccn2)CCO3)c1 (stereo not drawn)
  cytotoxicity at 70.5 h: -5.22%

## COc1ccc(S(=O)(=O)Nc2cnc(N(C)C)nc2)cc1
  cytotoxicity at 70.5 h: 29.6%

## O=C(COCc1ccccc1)N1CCN(c2ccc(Cl)cn2)CC1
  cytotoxicity at 70.5 h: -4.29%

## CN(C)C1CC2(CCN(C(=O)c3csnn3)CC2)c2ccccc21 (stereo not drawn)
  cytotoxicity at 70.5 h: -0.291%

## Cc1cccc(C(CNC(=O)NCc2cc[nH]n2)N2CCOCC2)c1 (stereo not drawn)
  cytotoxicity at 70.5 h: -14.8%

## COC(=O)[C@@H]1CN(C(=O)c2cscn2)C[C@H]1c1ccc(OC)cc1
  cytotoxicity at 70.5 h: -1.39%

## Cc1cc(C)n(C2CN(Cc3ccc(C(=O)N4CCCC4)cc3)C2)n1
  cytotoxicity at 70.5 h: -1.2%

## c1cnc(NC[C@@H]2CCC[C@@H]3CN(Cc4cccnc4)C[C@@H]32)nc1
  cytotoxicity at 70.5 h: -2.09%

## O=C(CC1CC1)N1CC[C@H]2[C@@H]1CCC(=O)N2Cc1ccncc1
  cytotoxicity at 70.5 h: -9.8%

## Cc1ccc(C(=O)N(C)CCOc2ccccc2F)c(=O)[nH]1
  cytotoxicity at 70.5 h: -5.2%

## Cc1ccc(C(=O)CCC(=O)N2CCC(c3nncn3C)CC2)cc1
  cytotoxicity at 70.5 h: -4.47%

## COc1ccc(CNC(=O)c2nc3c(s2)CCN(C(C)=O)CC3)cc1
  cytotoxicity at 70.5 h: -11.1%

## Cc1cccc(OC2CCN(c3ccc(C#N)cn3)CC2)n1
  cytotoxicity at 70.5 h: -1.77%

## Cc1nc(C)n(CC2CCCCN2c2ccnc(-c3ccccc3)n2)n1 (stereo not drawn)
  cytotoxicity at 70.5 h: 5.38%

## Cn1ccnc1CN1CCOCC(Cc2ccccn2)C1 (stereo not drawn)
  cytotoxicity at 70.5 h: -12.6%

## COc1ccccc1CC(=O)N1CCC(NCc2cccnc2)CC1
  cytotoxicity at 70.5 h: 24%

## CCc1csc(C2CCCN(C(=O)c3cc(Cl)c[nH]3)C2)n1 (stereo not drawn)
  cytotoxicity at 70.5 h: 2.15%

## CC(C)OCCCNC(=O)NC(C)c1ccc(-n2cncn2)cc1 (stereo not drawn)
  cytotoxicity at 70.5 h: 0.395%

## Cc1cc(C)c(S(N)(=O)=O)cc1C(=O)NCCN1CCC(C)CC1
  cytotoxicity at 70.5 h: -12.9%

## COc1ccc(CN2CC[C@@H](N)[C@@H](OC)C2)cc1Cn1cncn1
  cytotoxicity at 70.5 h: -6.47%

## Cc1nn(Cn2ccc(C(=O)N3CCCC(C)C3)n2)c(C)c1Cl (stereo not drawn)
  cytotoxicity at 70.5 h: -5.65%

## CC(C)NS(=O)(=O)c1cc(C(=O)O)cc(-c2ccccc2F)c1
  cytotoxicity at 70.5 h: -10.8%

## CC(NCc1ccccc1Br)c1ccc2[nH]c(=O)[nH]c2c1 (stereo not drawn)
  cytotoxicity at 70.5 h: 3.35%

## CNC(=O)C1CCCCN1C(=O)CCn1cnc2sccc2c1=O (stereo not drawn)
  cytotoxicity at 70.5 h: -1.4%

## CCC(=O)Nc1ccc(C(C)NC(=O)COCCOC)cc1 (stereo not drawn)
  cytotoxicity at 70.5 h: 3.18%

## O=C(CSCCN1CCOCC1)N1CCCCCC1
  cytotoxicity at 70.5 h: 29.9%

## CC(C)N(CCNCc1ccc(C#N)cc1)C1CC1
  cytotoxicity at 70.5 h: 17.7%

## Cc1cc(C(=O)NCc2ccc(-c3n[nH]cc3C(=O)N(C)C)cc2)on1
  cytotoxicity at 70.5 h: -2.38%

## O=C(CC1CC1)N1CCC(O)(CN2CCN(c3ccccc3)CC2)C1 (stereo not drawn)
  cytotoxicity at 70.5 h: 5.49%

## COCc1cn(C2CCN(CCC(C)c3ccccc3)CC2)nn1 (stereo not drawn)
  cytotoxicity at 70.5 h: -12.1%

## CCc1nnc2n1CCN(Cc1ccc3c(c1)OCCO3)C2
  cytotoxicity at 70.5 h: 15.4%

## CCc1noc(CNc2c(F)cccc2-n2cccn2)n1
  cytotoxicity at 70.5 h: -8.2%

## CC(C)c1nc(N2CC[C@@H](N(C)CCc3ccccn3)[C@H](O)C2)no1
  cytotoxicity at 70.5 h: 13.3%

## Cc1nccc(C(=O)N2CCCN(Cc3cnn(C(C)C)c3)CC2)n1
  cytotoxicity at 70.5 h: -4.5%

## Cc1sc(NC(=O)CN(C)CCOc2cccc(F)c2)c(C)c1C
  cytotoxicity at 70.5 h: -2.66%

## Cc1ccccc1CN1CCN(C(=O)c2cnc(C3CC3)[nH]c2=O)CC1
  cytotoxicity at 70.5 h: 7.92%

## CC(C)c1noc(C(C)N2CCN(Cc3ccco3)CC2)n1 (stereo not drawn)
  cytotoxicity at 70.5 h: -9.38%

## Cc1nn(C)c(Oc2ccc(Cl)cc2)c1CN1CCOC(CN)C1 (stereo not drawn)
  cytotoxicity at 70.5 h: -2.25%

## COCCNC(=O)c1cc(-c2cc[nH]n2)n2ccccc12
  cytotoxicity at 70.5 h: -117%

## CN(C)C(=O)c1c[nH]nc1C1CCN(S(=O)(=O)c2cccc(Cl)c2)CC1
  cytotoxicity at 70.5 h: 9.14%

## Cc1ccnc(NC(=O)C2CCN(CCCc3cn[nH]c3)CC2)c1
  cytotoxicity at 70.5 h: -14.2%

## CN1CCOCC2(CCCN(C(=O)c3ccccc3F)C2)C1 (stereo not drawn)
  cytotoxicity at 70.5 h: 13.4%

## CC(C)(C)C(Cn1ccnc1)NC(=O)NCc1ccco1 (stereo not drawn)
  cytotoxicity at 70.5 h: -7.73%

## CCC(CC)C(O)CNC(=O)Nc1cccc(-c2nccn2C)c1 (stereo not drawn)
  cytotoxicity at 70.5 h: -3.63%

## Cc1noc(C)c1C(=O)N1CCC(c2[nH]ncc2S(C)(=O)=O)C1 (stereo not drawn)
  cytotoxicity at 70.5 h: -1.52%

## O=C1CC2(CCN(C(=O)C3CCCCC3)C2)Nc2ccccc2N1 (stereo not drawn)
  cytotoxicity at 70.5 h: -9.46%

## CC(C)N1CCC2(CC1)CC(NS(C)(=O)=O)c1ccccc1O2 (stereo not drawn)
  cytotoxicity at 70.5 h: 4.16%

## CCC(C)(O)CNC(=O)Nc1ccc(C)cc1Br (stereo not drawn)
  cytotoxicity at 70.5 h: -5.82%

## O=C(NCc1cccnc1)Nc1cc(C(F)(F)F)c[nH]c1=O
  cytotoxicity at 70.5 h: -9.57%

## CO[C@@H]1CCN(C(=O)c2ccsc2)[C@@H]2CN(CC3CC3)C[C@@H]21
  cytotoxicity at 70.5 h: -4.96%

## COc1ccc(NC(=O)CCN2CC=C(c3cnn(C)c3)CC2)c(C)c1
  cytotoxicity at 70.5 h: 2.12%

## COC(CNC(=O)c1cc(C)on1)c1ccccc1C (stereo not drawn)
  cytotoxicity at 70.5 h: -2.28%

## Cn1cc(S(=O)(=O)NCc2ccsc2)cn1
  cytotoxicity at 70.5 h: 13.8%

## CCCC(=O)Nc1cnn(CC(=O)Nc2ccc(SC)cc2)c1
  cytotoxicity at 70.5 h: -5.62%

## Cc1cnn(CCNCC(=O)NC2(C#N)CCCC2)c1
  cytotoxicity at 70.5 h: -0.423%

## CCOCc1ncn2c1CN(S(=O)(=O)c1cccs1)CCC2
  cytotoxicity at 70.5 h: 12.5%

## Cn1cncc1-c1nnc([C@H]2CCN(C3CCOCC3)C2)o1
  cytotoxicity at 70.5 h: -3.04%
